Data taken from ChEMBL document CHEMBL3124843, “Synthesis, cytostatic, antimicrobial, and anti-HCV activity of 6-substituted 7-(het)aryl-7-deazapurine ribonucleosides” (J Med Chem, 2014).

tested on: Mycobacterium tuberculosis; assay: Antimycobacterial activity against Mycobacterium bovis BCG after 5 days by MTT assay; type: functional, organism-based; conditions: variant bovis BCG, 120 h

`Nc1nc2c(c(-c3ccoc3)cn2[C@@H]2O[C@H](CO)[C@@H](O)[C@H]2O)c(=O)[nH]1` and `Nc1nc2c(c(-c3ccsc3)cn2[C@@H]2O[C@H](CO)[C@@H](O)[C@H]2O)c(=O)[nH]1` cannot be ordered by IC50: > 100 µM for the first, > 100 µM for the second.

Compared with `C#Cc1cn([C@@H]2O[C@H](CO)[C@@H](O)[C@H]2O)c2ncnc(SC)c12`, `C#Cc1cn([C@@H]2O[C@H](CO)[C@@H](O)[C@H]2O)c2ncnc(C)c12` is lower in IC50: > 100 µM for the first, 42.9 µM for the second.

First: Cc1ncnc2c1c(Br)cn2[C@@H]1O[C@H](CO)[C@@H](O)[C@H]1O
Second: Cc1ncnc2c1c(I)cn2[C@@H]1O[C@H](CO)[C@@H](O)[C@H]1O
The IC50 of the first is 2.5-fold lower: 20.8 µM for the first, 51.4 µM for the second. The first is the more potent here.

Compared with `Cc1nc(N)c2c(-c3cccs3)cn([C@@H]3O[C@H](CO)[C@@H](O)[C@H]3O)c2n1`, `Nc1nc(N)c2c(-c3cccs3)cn([C@@H]3O[C@H](CO)[C@@H](O)[C@H]3O)c2n1` is 34-fold lower in IC50: 82.7 µM for the first, 2.44 µM for the second.

Going from `Cc1ncnc2c1c(-c1ccsc1)cn2[C@@H]1O[C@H](CO)[C@@H](O)[C@H]1O` to `CNc1ncnc2c1c(-c1ccsc1)cn2[C@@H]1O[C@H](CO)[C@@H](O)[C@H]1O`, the IC50 rises from 18.5 µM to > 100 µM. The first is the more potent here.

Compared with `Nc1nc(N)c2c(-c3ccco3)cn([C@@H]3O[C@H](CO)[C@@H](O)[C@H]3O)c2n1`, `Cc1nc(N)c2c(-c3ccco3)cn([C@@H]3O[C@H](CO)[C@@H](O)[C@H]3O)c2n1` is higher in IC50: 84 µM for the first, > 100 µM for the second.

`O=c1[nH]cnc2c1c(-c1cccs1)cn2[C@@H]1O[C@H](CO)[C@@H](O)[C@H]1O` and `Nc1nc2c(c(-c3cccs3)cn2[C@@H]2O[C@H](CO)[C@@H](O)[C@H]2O)c(=O)[nH]1` cannot be ordered by IC50: > 100 µM for the first, > 100 µM for the second.

`Cc1nc(N)c2ccn([C@@H]3O[C@H](CO)[C@@H](O)[C@H]3O)c2n1` and `Cc1nc(N)c2c(I)cn([C@@H]3O[C@H](CO)[C@@H](O)[C@H]3O)c2n1` cannot be ordered by IC50: > 100 µM for the first, > 100 µM for the second.

First: CNc1ncnc2c1c(-c1ccco1)cn2[C@@H]1O[C@H](CO)[C@@H](O)[C@H]1O
Second: Cc1ncnc2c1c(-c1ccco1)cn2[C@@H]1O[C@H](CO)[C@@H](O)[C@H]1O
The IC50 of the first is higher: > 100 µM for the first, 38.9 µM for the second. The second is the more potent here.

`COc1nc(N)nc2c1c(-c1ccco1)cn2[C@@H]1O[C@H](CO)[C@@H](O)[C@H]1O` and `COc1nc(N)nc2c1c(-c1ccoc1)cn2[C@@H]1O[C@H](CO)[C@@H](O)[C@H]1O` cannot be ordered by IC50: > 100 µM for the first, > 100 µM for the second.

Going from `COc1ncnc2c1ccn2[C@@H]1O[C@H](CO)[C@@H](O)[C@H]1O` to `Cc1ncnc2c1ccn2[C@@H]1O[C@H](CO)[C@@H](O)[C@H]1O`, the IC50 falls from > 100 µM to 0.3 µM.

Compared with `Nc1ncnc2c1c(-c1cccs1)cn2[C@@H]1O[C@H](CO)[C@@H](O)[C@H]1O`, `Cc1ncnc2c1c(-c1cccs1)cn2[C@@H]1O[C@H](CO)[C@@H](O)[C@H]1O` is 3-fold higher in IC50: 4.73 µM for the first, 14 µM for the second.

`Nc1nc(N)c2c(-c3ccsc3)cn([C@@H]3O[C@H](CO)[C@@H](O)[C@H]3O)c2n1` and `Cc1nc(N)c2c(-c3ccsc3)cn([C@@H]3O[C@H](CO)[C@@H](O)[C@H]3O)c2n1` cannot be ordered by IC50: > 100 µM for the first, > 100 µM for the second.

`CSc1ncnc2c1ccn2[C@@H]1O[C@H](CO)[C@@H](O)[C@H]1O` and `CNc1ncnc2c1ccn2[C@@H]1O[C@H](CO)[C@@H](O)[C@H]1O` are within 1.5-fold of each other in IC50: 96.8 µM for the first, 87.1 µM for the second.

Compared with `Cc1ncnc2c1c(-c1ccoc1)cn2[C@@H]1O[C@H](CO)[C@@H](O)[C@H]1O`, `CSc1ncnc2c1c(-c1ccoc1)cn2[C@@H]1O[C@H](CO)[C@@H](O)[C@H]1O` is higher in IC50: 9.3 µM for the first, > 100 µM for the second.

First: Nc1nc(N)c2c(-c3cc4ccccc4o3)cn([C@@H]3O[C@H](CO)[C@@H](O)[C@H]3O)c2n1
Second: Cc1nc(N)c2c(-c3cc4ccccc4o3)cn([C@@H]3O[C@H](CO)[C@@H](O)[C@H]3O)c2n1
The IC50 of the first is lower: 24.6 µM for the first, > 100 µM for the second.

Compared with `Cc1ncnc2c1c(-c1cc3ccccc3o1)cn2[C@@H]1O[C@H](CO)[C@@H](O)[C@H]1O`, `CSc1ncnc2c1c(-c1cc3ccccc3o1)cn2[C@@H]1O[C@H](CO)[C@@H](O)[C@H]1O` is higher in IC50: 2.1 µM for the first, > 100 µM for the second. The first is the more potent here.

First: CSc1ncnc2c1c(-c1ccsc1)cn2[C@@H]1O[C@H](CO)[C@@H](O)[C@H]1O
Second: COc1ncnc2c1c(-c1ccsc1)cn2[C@@H]1O[C@H](CO)[C@@H](O)[C@H]1O
The IC50 of the first is lower: 98.6 µM for the first, > 100 µM for the second. The first is the more potent here.

`Nc1nc2c(c(-c3ccccc3)cn2[C@@H]2O[C@H](CO)[C@@H](O)[C@H]2O)c(=O)[nH]1` and `O=c1[nH]cnc2c1c(-c1ccccc1)cn2[C@@H]1O[C@H](CO)[C@@H](O)[C@H]1O` cannot be ordered by IC50: > 100 µM for the first, > 100 µM for the second.

First: CN(C)c1ncnc2c1c(-c1ccco1)cn2[C@@H]1O[C@H](CO)[C@@H](O)[C@H]1O
Second: Nc1ncnc2c1c(-c1ccco1)cn2[C@@H]1O[C@H](CO)[C@@H](O)[C@H]1O
The IC50 of the first is higher: > 100 µM for the first, 17.4 µM for the second.

Compared with `Cc1nc(N)c2c(-c3ccccc3)cn([C@@H]3O[C@H](CO)[C@@H](O)[C@H]3O)c2n1`, `Nc1nc(N)c2c(-c3ccccc3)cn([C@@H]3O[C@H](CO)[C@@H](O)[C@H]3O)c2n1` is lower in IC50: > 100 µM for the first, 8.53 µM for the second. The second is the more potent here.

Going from `CNc1ncnc2c1c(I)cn2[C@@H]1O[C@H](CO)[C@@H](O)[C@H]1O` to `C#Cc1cn([C@@H]2O[C@H](CO)[C@@H](O)[C@H]2O)c2ncnc(NC)c12`, the IC50 rises from 99.9 µM to > 100 µM. The first is the more potent here.

`CSc1ncnc2c1c(-c1cccs1)cn2[C@@H]1O[C@H](CO)[C@@H](O)[C@H]1O` and `CNc1ncnc2c1c(-c1cccs1)cn2[C@@H]1O[C@H](CO)[C@@H](O)[C@H]1O` cannot be ordered by IC50: > 100 µM for the first, > 100 µM for the second.

First: CSc1ncnc2c1c(-c1ccccc1)cn2[C@@H]1O[C@H](CO)[C@@H](O)[C@H]1O
Second: Cc1ncnc2c1c(-c1ccccc1)cn2[C@@H]1O[C@H](CO)[C@@H](O)[C@H]1O
The IC50 of the first is higher: > 100 µM for the first, 26.5 µM for the second. The second is the more potent here.

`Nc1nc2c(c(-c3ccco3)cn2[C@@H]2O[C@H](CO)[C@@H](O)[C@H]2O)c(=O)[nH]1` and `O=c1[nH]cnc2c1c(-c1ccco1)cn2[C@@H]1O[C@H](CO)[C@@H](O)[C@H]1O` cannot be ordered by IC50: > 100 µM for the first, > 100 µM for the second.

Going from `Nc1nc(N)c2c(-c3ccoc3)cn([C@@H]3O[C@H](CO)[C@@H](O)[C@H]3O)c2n1` to `Cc1nc(N)c2c(-c3ccoc3)cn([C@@H]3O[C@H](CO)[C@@H](O)[C@H]3O)c2n1`, the IC50 rises from 71.5 µM to > 100 µM. The first is the more potent here.

`CSc1ncnc2c1c(-c1ccco1)cn2[C@@H]1O[C@H](CO)[C@@H](O)[C@H]1O` and `COc1ncnc2c1c(-c1ccco1)cn2[C@@H]1O[C@H](CO)[C@@H](O)[C@H]1O` cannot be ordered by IC50: > 100 µM for the first, > 100 µM for the second.

`O=c1[nH]cnc2c1c(-c1ccsc1)cn2[C@@H]1O[C@H](CO)[C@@H](O)[C@H]1O` and `O=c1[nH]cnc2c1c(-c1ccoc1)cn2[C@@H]1O[C@H](CO)[C@@H](O)[C@H]1O` cannot be ordered by IC50: > 100 µM for the first, > 100 µM for the second.

Going from `CNc1ncnc2c1c(-c1cc3ccccc3o1)cn2[C@@H]1O[C@H](CO)[C@@H](O)[C@H]1O` to `COc1ncnc2c1c(-c1cc3ccccc3o1)cn2[C@@H]1O[C@H](CO)[C@@H](O)[C@H]1O`, the IC50 falls from > 100 µM to 73.5 µM.

`CNc1ncnc2c1c(-c1ccoc1)cn2[C@@H]1O[C@H](CO)[C@@H](O)[C@H]1O` and `COc1ncnc2c1c(-c1ccoc1)cn2[C@@H]1O[C@H](CO)[C@@H](O)[C@H]1O` cannot be ordered by IC50: > 100 µM for the first, > 100 µM for the second.

`CN(C)c1ncnc2c1c(-c1ccoc1)cn2[C@@H]1O[C@H](CO)[C@@H](O)[C@H]1O` and `CN(C)c1ncnc2c1c(-c1ccsc1)cn2[C@@H]1O[C@H](CO)[C@@H](O)[C@H]1O` cannot be ordered by IC50: > 100 µM for the first, > 100 µM for the second.

`COc1ncnc2c1c(I)cn2[C@@H]1O[C@H](CO)[C@@H](O)[C@H]1O` and `C#Cc1cn([C@@H]2O[C@H](CO)[C@@H](O)[C@H]2O)c2ncnc(OC)c12` cannot be ordered by IC50: > 100 µM for the first, > 100 µM for the second.

Going from `CSc1ncnc2c1c(I)cn2[C@@H]1O[C@H](CO)[C@@H](O)[C@H]1O` to `CN(C)c1ncnc2c1c(I)cn2[C@@H]1O[C@H](CO)[C@@H](O)[C@H]1O`, the IC50 rises from 87.1 µM to > 100 µM. The first is the more potent here.

`COc1nc(N)nc2c1c(-c1ccccc1)cn2[C@@H]1O[C@H](CO)[C@@H](O)[C@H]1O` and `COc1ncnc2c1c(-c1ccccc1)cn2[C@@H]1O[C@H](CO)[C@@H](O)[C@H]1O` cannot be ordered by IC50: > 100 µM for the first, > 100 µM for the second.

`CN(C)c1ncnc2c1c(-c1cc3ccccc3o1)cn2[C@@H]1O[C@H](CO)[C@@H](O)[C@H]1O` and `CN(C)c1ncnc2c1c(-c1ccccc1)cn2[C@@H]1O[C@H](CO)[C@@H](O)[C@H]1O` cannot be ordered by IC50: > 100 µM for the first, > 100 µM for the second.

`CNc1ncnc2c1c(-c1ccccc1)cn2[C@@H]1O[C@H](CO)[C@@H](O)[C@H]1O` and `COc1ncnc2c1c(-c1cccs1)cn2[C@@H]1O[C@H](CO)[C@@H](O)[C@H]1O` cannot be ordered by IC50: > 100 µM for the first, > 100 µM for the second.

`CN(C)c1ncnc2c1c(-c1cccs1)cn2[C@@H]1O[C@H](CO)[C@@H](O)[C@H]1O` and `C#Cc1cn([C@@H]2O[C@H](CO)[C@@H](O)[C@H]2O)c2ncnc(N(C)C)c12` cannot be ordered by IC50: > 100 µM for the first, > 100 µM for the second.

`Nc1nc2c(c(-c3cc4ccccc4o3)cn2[C@@H]2O[C@H](CO)[C@@H](O)[C@H]2O)c(=O)[nH]1` and `O=c1[nH]cnc2c1c(-c1cc3ccccc3o1)cn2[C@@H]1O[C@H](CO)[C@@H](O)[C@H]1O` cannot be ordered by IC50: > 100 µM for the first, > 100 µM for the second.

`C#Cc1cn([C@@H]2O[C@H](CO)[C@@H](O)[C@H]2O)c2nc(C)nc(N)c12` and `C#Cc1cn([C@@H]2O[C@H](CO)[C@@H](O)[C@H]2O)c2nc(N)nc(OC)c12` cannot be ordered by IC50: > 100 µM for the first, > 100 µM for the second.

`COc1nc(N)nc2c1c(-c1cccs1)cn2[C@@H]1O[C@H](CO)[C@@H](O)[C@H]1O` and `COc1nc(N)nc2c1c(-c1ccsc1)cn2[C@@H]1O[C@H](CO)[C@@H](O)[C@H]1O` cannot be ordered by IC50: > 100 µM for the first, > 100 µM for the second.

`CN(C)c1ncnc2c1ccn2[C@@H]1O[C@H](CO)[C@@H](O)[C@H]1O` and `COc1nc(N)nc2c1c(-c1cc3ccccc3o1)cn2[C@@H]1O[C@H](CO)[C@@H](O)[C@H]1O` cannot be ordered by IC50: > 100 µM for the first, > 100 µM for the second.
